Among the data in ChEMBL document CHEMBL3352308, “Identification of constrained peptidomimetic chemotypes as HIV protease inhibitors” (Eur J Med Chem, 2014) are inhibition and IC50 values, retold here.

Structures are written as SMILES.

Experiment [1] addresses Protease (Human immunodeficiency virus 1) (UniProt Q9YQ12). The experiment can be described thus: Inhibition of HIV-1 protease using DABCYL-Abu-Ser-Gln-Asn-Tyr-Pro-Ile-Val-Gln-EDANS as substrate preincubated at 10 uM for 15 mins before substrate addition measured over 15 mins by fluorometric assay.
For experiment [2] the target is unchanged. The experiment can be described thus: Inhibition of HIV-1 protease using DABCYL-Abu-Ser-Gln-Asn-Tyr-Pro-Ile-Val-Gln-EDANS as substrate preincubated at 1 uM for 15 mins before substrate addition measured over 15 mins by fluorometric assay.
Another experiment deals with Protease (Human immunodeficiency virus 1, UniProt Q9YQ12). The experiment can be described thus: Inhibition of HIV-1 protease using DABCYL-Abu-Ser-Gln-Asn-Tyr-Pro-Ile-Val-Gln-EDANS as substrate preincubated for 15 mins before substrate addition measured over 15 mins by fluorometric assay.
Protease, sequence (Q9YQ12 whole entry): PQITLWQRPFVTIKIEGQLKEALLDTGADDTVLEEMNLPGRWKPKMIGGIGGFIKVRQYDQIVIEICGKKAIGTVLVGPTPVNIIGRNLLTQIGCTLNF

Protease (Human immunodeficiency virus 1), sequence (Q9YQ12 as listed by the source): as the sequence (Q9YQ12 whole entry) above

As to `CC(C)C[C@@H](C(=O)O)N1C[C@@H]2O[C@@H](C(=O)N3CCCCC3)[C@@H](O2)C1=O`, the inhibition in experiment [1] came to 63%.
In experiment [1], `O=C(NC1CCCCC1)[C@@H]1O[C@H]2CN(Cc3ccccc3)C(=O)[C@@H]1O2` showed an inhibition of 34%.
The same measure, in the same setting: with `CC(C)C[C@H](C(=O)O)N1C[C@@H]2O[C@@H](C(=O)N3CCCCC3)[C@@H](O2)C1=O` the figure was 43%; with `COC(=O)[C@H](CC(C)C)N1C[C@@H]2O[C@@H](C(=O)N[C@H](CO)CC(C)C)[C@@H](O2)C1=O`, 57%.
For the molecule `O=C([C@@H]1O[C@@]2(c3ccccc3)CN(C(c3ccccc3)c3ccccc3)C(=O)[C@@H]1O2)N1CCN(CCO)CC1`, the inhibition in experiment [1] was 71%.
Consider `CCCCNC(=O)[C@@H]1O[C@@H]2O[C@H]1C(=O)N(Cc1ccccc1)[C@H]2Cc1ccccc1`, for which the inhibition in experiment [1] amounted to 67%; in experiment [2], 33%. Moreover, the IC50 against Protease was found to be 7.5 µM.
In experiment [1], `CNCCNC(=O)[C@@H]1O[C@@]2(c3ccccc3)CN(C(c3ccccc3)c3ccccc3)C(=O)[C@@H]1O2` yielded an inhibition of 33%.
`O=C([C@@H]1O[C@@H]2O[C@H]1C(=O)N(Cc1ccccc1)[C@@H]2Cc1ccccc1)N1CCCCC1` yielded an inhibition in experiment [1] of 59%.
Molecule `CCCC[C@@H](C(=O)OC)N1C[C@@H]2O[C@@H](C(=O)N3CCCCC3)[C@@H](O2)C1=O` gave an inhibition in experiment [1] of 43%.
Same read-out and setting: with `CCOC(=O)N1CCN(C(=O)[C@@H]2O[C@H]3CN(Cc4ccccc4)C(=O)[C@@H]2O3)CC1` the figure was 57%.
On to `CCCCNC(=O)[C@@H]1O[C@@]2(c3ccccc3)CN(C(c3ccccc3)c3ccccc3)C(=O)[C@@H]1O2`, for which, in experiment [1], the inhibition was 66%.
As to `O=C1[C@@H]2O[C@H](CN1Cc1ccccc1)O[C@H]2C(=O)N1CCC[C@@H]1CO`, the inhibition in experiment [1] turned out to be 77%.
In turn, `CNCCNC(=O)[C@@H]1O[C@@H]2O[C@H]1C(=O)N(Cc1ccccc1)[C@H]2Cc1ccccc1` yielded an inhibition in experiment [1] of 49%.
Turning to `O=C(NC1CCCCC1)[C@@H]1O[C@@H]2O[C@H]1C(=O)N(Cc1ccccc1)[C@H]2Cc1ccccc1`, the inhibition in experiment [1] came to 68%; in experiment [2] it was 69%. The half-maximal inhibitory concentration (IC50) at Protease is 1.9 µM.
Consider `O=C([C@H]1O[C@@H]2CN(Cc3ccccc3)C(=O)[C@H]1O2)N1CCN(CCO)CC1`, for which the inhibition in experiment [1] was determined as 47%.
On to `COC(=O)[C@H](CC(C)C)N1C[C@@H]2O[C@@H](C(=O)N3CCN(Cc4ccccc4)CC3)[C@@H](O2)C1=O`, for which the inhibition in experiment [1] turned out to be 36%.
`CC[C@H](C)[C@@H](C(=O)OC)N1C[C@@H]2O[C@@H](C(=O)N3CCCCC3)[C@@H](O2)C1=O`: in experiment [1], the inhibition is 30%.
In experiment [1], `CC(C)CCNC(=O)[C@@H]1O[C@@H]2O[C@H]1C(=O)N(Cc1ccccc1)[C@H]2Cc1ccccc1` returned an inhibition of 75%.
The molecule `CCCNC(=O)[C@@H]1O[C@@H]2O[C@H]1C(=O)N(Cc1ccccc1)[C@H]2Cc1ccccc1` came in with an inhibition in experiment [1] of 56%.
Take `C[C@@H](CO)NC(=O)[C@@H]1O[C@H]2CN(Cc3ccccc3)C(=O)[C@@H]1O2`: the inhibition in experiment [1] was determined as 90%; in experiment [2], 54%. At Protease, this molecule yielded an IC50 of 1.5 µM.
Consider `O=C([C@@H]1O[C@@H]2O[C@H]1C(=O)N(Cc1ccccc1)[C@H]2Cc1ccccc1)N1CCN(CCO)CC1`, for which the inhibition stood at 75% in experiment [1] and 45% in experiment [2]. The 50% inhibitory concentration (IC50) on Protease was 5.6 µM.
In turn, `O=C(NCCCO)[C@@H]1O[C@H]2CN(Cc3ccccc3)C(=O)[C@@H]1O2` came in with an inhibition in experiment [1] of 47%.
For the molecule `O=C([C@@H]1O[C@H]2CN(Cc3ccccc3)C(=O)[C@@H]1O2)N1CCCCC1`, the inhibition in experiment [1] was 21%.
As to `CC(C)C[C@@H](CO)NC(=O)[C@@H]1O[C@@H]2O[C@H]1C(=O)N(Cc1ccccc1)[C@@H]2Cc1ccccc1`, the inhibition in experiment [1] came out at 80%.
Take `CC(C)C[C@@H](CO)NC(=O)[C@@H]1O[C@H]2CN(Cc3ccccc3)C(=O)[C@@H]1O2`: the inhibition in experiment [1] stood at 82%; in experiment [2], 55%. The IC50 at Protease came to 2.6 µM.
In turn, `COC(=O)[C@H](CC(C)C)N1C[C@@H]2O[C@@H](C(=O)N3CCN(CCc4ccccc4)CC3)[C@@H](O2)C1=O` displayed an inhibition in experiment [1] of 70%.
For the molecule `O=C([C@@H]1O[C@@H]2O[C@H]1C(=O)N(Cc1ccccc1)[C@@H]2Cc1ccccc1)N1CCC[C@H]1CO`, the inhibition in experiment [1] stood at 58%.
With `C#CCNC(=O)[C@@H]1O[C@@H]2O[C@H]1C(=O)N(Cc1ccccc1)[C@H]2Cc1ccccc1`, the inhibition in experiment [1] amounted to 78%; in experiment [2] it was 60%. The molecule further registered an IC50 against Protease of 0.7 µM.
Molecule `O=C(NCCc1ccccc1)[C@@H]1O[C@H]2CN(Cc3ccccc3)C(=O)[C@@H]1O2` came in with an inhibition in experiment [1] of 31%.
Take `CC(C)CC(=O)N[C@H](C(=O)N[C@H](C(=O)N[C@@H](CC(C)C)[C@@H](O)CC(=O)N[C@@H](C)C(=O)N[C@@H](CC(C)C)[C@@H](O)CC(=O)O)C(C)C)C(C)C`: the inhibition was 74% in experiment [1] and 56% in experiment [2].
Molecule `CCCC[C@@H](C(=O)OC)N1C[C@H]2O[C@H](C(=O)N3CCCCC3)[C@H](O2)C1=O` had an inhibition in experiment [1] of 46%.
As for `O=C([C@@H]1O[C@@H]2O[C@H]1C(=O)N(Cc1ccccc1)[C@@H]2Cc1ccccc1)N1CCOCC1`, the inhibition in experiment [1] is 17%.
Consider `C[C@@H](CO)NC(=O)[C@@H]1O[C@@H]2O[C@H]1C(=O)N(Cc1ccccc1)[C@@H]2Cc1ccccc1`, for which the inhibition in experiment [1] worked out at 81%.
